Source: ChEMBL document CHEMBL1128971, “Pyrazolo[3,4-d]pyrimidines: C4, C6 substitution leads to adenosine A1 receptor selectivity” (Bioorg Med Chem Lett, 1996)

Assays:
[1] = target: Adenosine receptors; A1 & A2a (Rattus norvegicus) (UniProt P25099+P30543); assay: Ratio of binding affinity against adenosine A1 receptor and adenosine A2a receptor; assay type: protein assay
Adenosine receptor A2a = Adenosine receptor A2a (Rattus norvegicus, UniProt P30543); assay: Inhibition of A2a agonist [3H]-CGS- 21680 binding to rat striatal membranes; assay type: cell membranes, Membrane
Adenosine receptor A2a, sequence (P30543 whole entry): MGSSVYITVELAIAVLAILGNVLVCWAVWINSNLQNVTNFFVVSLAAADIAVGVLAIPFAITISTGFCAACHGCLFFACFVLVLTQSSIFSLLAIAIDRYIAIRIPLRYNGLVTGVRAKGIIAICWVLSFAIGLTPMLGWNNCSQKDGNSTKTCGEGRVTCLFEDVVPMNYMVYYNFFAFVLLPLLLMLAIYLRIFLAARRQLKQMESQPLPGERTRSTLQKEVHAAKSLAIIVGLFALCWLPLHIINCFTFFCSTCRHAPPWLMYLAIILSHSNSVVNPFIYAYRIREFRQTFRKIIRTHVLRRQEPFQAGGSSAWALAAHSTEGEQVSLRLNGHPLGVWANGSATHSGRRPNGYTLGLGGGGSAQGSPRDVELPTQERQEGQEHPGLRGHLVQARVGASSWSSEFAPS

Adenosine receptor A1 = target: T1, Adenosine receptor A1 (Rattus norvegicus, UniProt P25099); assay: Inhibition of A1 agonist (R)-[3H]N 6-(phenylisopropyl) adenosine binding to membranes from rat whole brain
T1 sequence (P25099 whole entry): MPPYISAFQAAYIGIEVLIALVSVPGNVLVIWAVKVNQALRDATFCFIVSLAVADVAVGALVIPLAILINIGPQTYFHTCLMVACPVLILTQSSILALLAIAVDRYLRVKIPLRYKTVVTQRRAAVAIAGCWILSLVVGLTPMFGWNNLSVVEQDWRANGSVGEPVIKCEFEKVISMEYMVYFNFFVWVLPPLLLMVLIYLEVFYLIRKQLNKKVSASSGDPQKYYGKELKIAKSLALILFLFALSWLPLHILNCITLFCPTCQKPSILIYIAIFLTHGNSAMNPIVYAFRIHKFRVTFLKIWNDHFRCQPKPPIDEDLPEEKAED

Adenosine receptors; A1 & A2a (Rattus norvegicus), sequence (P30543 whole entry, looked up, one chain of several): as the sequence (P30543 whole entry) above

Ratio [1]	Ki (Adenosine receptor A2a) [nM]	Ki (Adenosine receptor A1) [nM]	SMILES
331	–	–	CCCCC(Sc1nc(NC)c2cnn(-c3ccccc3)c2n1)C(N)=O (centres undefined)
13000	> 38500	29.5	CCCSc1nc(SC(CC)C(N)=O)nc2c1cnn2-c1ccccc1 (centres undefined)
